According to the NIST ThermoML archive (doi:10.1021/acs.jced.9b00171):
± gives the expanded uncertainty stated by the source.

Columns and labels:
[1] = 101.3 kPa, Liquid, Oscillating disk viscometry
[2] = refractive index (Na D-line) (dimensionless); details: 101.3 kPa, Liquid, Standard Abbe refractometry

Work on `CNCCO` [2-(methylamino)ethanol] yielded a viscosity ([1]; 293.15 K) of 13.12 ± 2.9 mPa·s, a viscosity ([1]; 298.15 K) of 10.28 ± 2.3 mPa·s and a viscosity ([1]; 303.15 K) of 8.42 ± 1.8 mPa·s. It also gave a viscosity ([1]; 308.15 K) of 6.78 ± 1.5 mPa·s, a viscosity ([1]; 313.15 K) of 5.54 ± 1.2 mPa·s and a viscosity ([1]; 318.15 K) of 4.61 ± 0.99 mPa·s. For the same compound, the viscosity ([1]; 323.15 K) was 3.82 ± 0.82 mPa·s, the viscosity ([1]; 328.15 K) was 3.13 ± 0.69 mPa·s and the viscosity ([1]; 333.15 K) was 2.42 ± 0.56 mPa·s. For the same compound, the refractive index ([2]; 293.15 K) was 1.4386 ± 0.0022, the refractive index ([2]; 298.15 K) was 1.437 ± 0.0022 and the refractive index ([2]; 303.15 K) was 1.4352 ± 0.0022. The refractive index ([2]; 308.15 K) was 1.4331 ± 0.0022, the refractive index ([2]; 313.15 K) was 1.431 ± 0.0022 and the refractive index ([2]; 318.15 K) was 1.4288 ± 0.0022. For the same compound, the refractive index ([2]; 323.15 K) was 1.4265 ± 0.0023, the refractive index ([2]; 328.15 K) was 1.4242 ± 0.0023 and the refractive index ([2]; 333.15 K) was 1.4218 ± 0.0023.
Compound `NCCNCCO` [N-(2-aminoethyl)ethanolamine] has a viscosity ([1]; 293.15 K) of 153.62 ± 41 mPa·s, a viscosity ([1]; 298.15 K) of 99.27 ± 27 mPa·s and a viscosity ([1]; 303.15 K) of 71.31 ± 17 mPa·s. The viscosity ([1]; 308.15 K) was 52.94 ± 13 mPa·s, the viscosity ([1]; 313.15 K) was 37.67 ± 9.1 mPa·s and the viscosity ([1]; 318.15 K) was 28.23 ± 6.5 mPa·s. For the same compound, the viscosity ([1]; 323.15 K) was 21.55 ± 4.9 mPa·s, the viscosity ([1]; 328.15 K) was 16.43 ± 3.8 mPa·s and the viscosity ([1]; 333.15 K) was 12.74 ± 3 mPa·s. The refractive index ([2]; 293.15 K) was 1.4856 ± 0.0021, the refractive index ([2]; 298.15 K) was 1.4842 ± 0.0021 and the refractive index ([2]; 303.15 K) was 1.4827 ± 0.0022. For the same compound, the refractive index ([2]; 308.15 K) was 1.481 ± 0.0022, the refractive index ([2]; 313.15 K) was 1.4792 ± 0.0022 and the refractive index ([2]; 318.15 K) was 1.4772 ± 0.0022. The refractive index ([2]; 323.15 K) was 1.475 ± 0.002, the refractive index ([2]; 328.15 K) was 1.4727 ± 0.0023 and the refractive index ([2]; 333.15 K) was 1.4702 ± 0.0023.
